Reference: ChEMBL document CHEMBL3885861, “Open TG-GATES”

Species on record: Rattus norvegicus
Test: Open TG-GATES - Regimen: Single
Type: toxicity, organism-based, Sprague-Dawley
Design: regimen Single, gender Male, age 6 weeks
Details: in vivo, ip, route intraperitoneal injection; for APTT / Bas / Eos / Fbg / Hb / Ht / Lym / MCH / MCHC / MCV / Mono / Neu / PT / Plat / RBC / Ret / WBC: tissue Blood; for KIDNEY_L / KIDNEY_R / KIDNEY_TOTAL: tissue Kidney; for LIVER: tissue Liver; for A/G / ALP / ALT / AST / BUN / CRE / Ca / Cl / DBIL / GLC / IP / K / LDH / Na / PL / RALB / TBIL / TC / TG / TP / gamma-GTP: tissue Plasma
[1] = 300 mg/kg, 3 h, dose level Middle
[2] = 300 mg/kg, 6 h, dose level Middle
[3] = 300 mg/kg, 9 h, dose level Middle
[4] = 300 mg/kg, 24 h, dose level Middle
[5] = 1000 mg/kg, 3 h, dose level High
[6] = 1000 mg/kg, 6 h, dose level High
[7] = 1000 mg/kg, 9 h, dose level High
[8] = 1000 mg/kg, 24 h, dose level High

N[C@H]1C(O)O[C@H](CO)[C@@H](O)[C@@H]1O (some centres undefined) [GLUCOSAMINE]
TERMINAL_BW [1]: 188.6 g
APTT [1]: 17.5 s
Bas [1]: 0.4%
Eos [1]: 0.4%
Fbg [1]: 247.4 mg/dL
Hb [1]: 12.6 g/dL
Ht [1]: 38.9%
Lym [1]: 67%
MCH [1]: 21 pg
MCHC [1]: 32.3%
MCV [1]: 64.9 fL
Mono [1]: 4%
Neu [1]: 27%
PT [1]: 16.2 s
Plat [1]: 112.1 x10_4/uL
RBC [1]: 600.6 x10_4/ul
Ret [1]: 9.4%
WBC [1]: 96.7 x10_2/uL
KIDNEY_L [1]: 0.9 g
KIDNEY_R [1]: 0.9 g
KIDNEY_TOTAL [1]: 1.8 g
LIVER [1]: 8.4 g
A/G [1]: 0.9
ALP [1]: 1578.8 IU/L
ALT [1]: 43.4 IU/L
AST [1]: 82 IU/L
BUN [1]: 10.6 mg/dL
CRE [1]: 0.2 mg/dL
Ca [1]: 10.5 mg/dL
Cl [1]: 107.8 meq/L
DBIL [1]: 0.012 mg/dL
GLC [1]: 165.8 mg/dL
IP [1]: 8.9 mg/dL
K [1]: 4 meq/L
LDH [1]: 55.6 IU/L
Na [1]: 142.2 meq/L
PL [1]: 136.4 mg/dL
RALB [1]: 2.3 g/dL
TBIL [1]: 0.052 mg/dL
TC [1]: 76.6 mg/dL
TG [1]: 34.8 mg/dL
TP [1]: 5 g/dL
gamma-GTP [1]: 1 IU/L
TERMINAL_BW [2]: 188.8 g
APTT [2]: 20.1 s
Bas [2]: 0.2%
Eos [2]: 1%
Fbg [2]: 234.4 mg/dL
Hb [2]: 13.6 g/dL
Ht [2]: 41.5%
Lym [2]: 63%
MCH [2]: 21.3 pg
MCHC [2]: 32.7%
MCV [2]: 65.2 fL
Mono [2]: 2.6%
Neu [2]: 32.6%
PT [2]: 18.9 s
Plat [2]: 107.5 x10_4/uL
RBC [2]: 636.8 x10_4/ul
Ret [2]: 9%
WBC [2]: 50.8 x10_2/uL
KIDNEY_L [2]: 0.8 g
KIDNEY_R [2]: 0.8 g
KIDNEY_TOTAL [2]: 1.6 g
LIVER [2]: 8.4 g
A/G [2]: 0.9
ALP [2]: 1576.2 IU/L
ALT [2]: 145.8 IU/L
AST [2]: 213.4 IU/L
BUN [2]: 13.8 mg/dL
CRE [2]: 0.2 mg/dL
Ca [2]: 10.2 mg/dL
Cl [2]: 107.2 meq/L
DBIL [2]: 0.01 mg/dL
GLC [2]: 164.4 mg/dL
IP [2]: 9 mg/dL
K [2]: 3.7 meq/L
LDH [2]: 212.6 IU/L
Na [2]: 142.4 meq/L
PL [2]: 129.8 mg/dL
RALB [2]: 2.3 g/dL
TBIL [2]: 0.054 mg/dL
TC [2]: 70 mg/dL
TG [2]: 17.8 mg/dL
TP [2]: 4.9 g/dL
gamma-GTP [2]: 1 IU/L
TERMINAL_BW [3]: 183.2 g
APTT [3]: 18.5 s
Bas [3]: 0%
Eos [3]: 0.6%
Fbg [3]: 307.6 mg/dL
Hb [3]: 12.7 g/dL
Ht [3]: 39%
Lym [3]: 73%
MCH [3]: 21.1 pg
MCHC [3]: 32.6%
MCV [3]: 64.7 fL
Mono [3]: 1.8%
Neu [3]: 23.6%
PT [3]: 17.2 s
Plat [3]: 109.8 x10_4/uL
RBC [3]: 602.8 x10_4/ul
Ret [3]: 9.2%
WBC [3]: 55.1 x10_2/uL
KIDNEY_L [3]: 0.9 g
KIDNEY_R [3]: 0.9 g
KIDNEY_TOTAL [3]: 1.7 g
LIVER [3]: 7.3 g
A/G [3]: 0.9
ALP [3]: 1464 IU/L
ALT [3]: 40.6 IU/L
AST [3]: 84.4 IU/L
BUN [3]: 7.6 mg/dL
CRE [3]: 0.1 mg/dL
Ca [3]: 10.3 mg/dL
Cl [3]: 107.4 meq/L
DBIL [3]: 0.012 mg/dL
GLC [3]: 162.2 mg/dL
IP [3]: 9.9 mg/dL
K [3]: 3.8 meq/L
LDH [3]: 54.6 IU/L
Na [3]: 142 meq/L
PL [3]: 117.8 mg/dL
RALB [3]: 2.4 g/dL
TBIL [3]: 0.06 mg/dL
TC [3]: 63.4 mg/dL
TG [3]: 23.6 mg/dL
TP [3]: 5.2 g/dL
gamma-GTP [3]: 0.8 IU/L
TERMINAL_BW [4]: 190.9 g
APTT [4]: 19.9 s
Bas [4]: 0.6%
Eos [4]: 1.4%
Fbg [4]: 205.8 mg/dL
Hb [4]: 14.1 g/dL
Ht [4]: 43.4%
Lym [4]: 70%
MCH [4]: 20.9 pg
MCHC [4]: 32.5%
MCV [4]: 64.3 fL
Mono [4]: 3.8%
Neu [4]: 23%
PT [4]: 25.4 s
Plat [4]: 102.4 x10_4/uL
RBC [4]: 675.6 x10_4/ul
Ret [4]: 7.9%
WBC [4]: 79.5 x10_2/uL
KIDNEY_L [4]: 0.8 g
KIDNEY_R [4]: 0.9 g
KIDNEY_TOTAL [4]: 1.7 g
LIVER [4]: 8.1 g
A/G [4]: 0.9
ALP [4]: 2031.4 IU/L
ALT [4]: 214.6 IU/L
AST [4]: 341.6 IU/L
BUN [4]: 13.4 mg/dL
CRE [4]: 0.2 mg/dL
Ca [4]: 10.3 mg/dL
Cl [4]: 107 meq/L
DBIL [4]: 0.068 mg/dL
GLC [4]: 165.4 mg/dL
IP [4]: 9.1 mg/dL
K [4]: 4.3 meq/L
LDH [4]: 168 IU/L
Na [4]: 143.8 meq/L
PL [4]: 118.2 mg/dL
RALB [4]: 2.4 g/dL
TBIL [4]: 0.1 mg/dL
TC [4]: 57.2 mg/dL
TG [4]: 42 mg/dL
TP [4]: 5.2 g/dL
gamma-GTP [4]: 1 IU/L
TERMINAL_BW [5]: 188.7 g
APTT [5]: 21 s
Bas [5]: 0.2%
Eos [5]: 0.8%
Fbg [5]: 265 mg/dL
Hb [5]: 12.8 g/dL
Ht [5]: 39.4%
Lym [5]: 73.6%
MCH [5]: 21 pg
MCHC [5]: 32.4%
MCV [5]: 64.9 fL
Mono [5]: 3.4%
Neu [5]: 21.2%
PT [5]: 16.7 s
Plat [5]: 106.7 x10_4/uL
RBC [5]: 608 x10_4/ul
Ret [5]: 9.6%
WBC [5]: 92.4 x10_2/uL
KIDNEY_L [5]: 0.8 g
KIDNEY_R [5]: 0.8 g
KIDNEY_TOTAL [5]: 1.6 g
LIVER [5]: 8.9 g
A/G [5]: 0.9
ALP [5]: 1493 IU/L
ALT [5]: 50 IU/L
AST [5]: 92.6 IU/L
BUN [5]: 12 mg/dL
CRE [5]: 0.2 mg/dL
Ca [5]: 10.6 mg/dL
Cl [5]: 110 meq/L
DBIL [5]: 0.012 mg/dL
GLC [5]: 167.2 mg/dL
IP [5]: 7.1 mg/dL
K [5]: 3.9 meq/L
LDH [5]: 93.4 IU/L
Na [5]: 143.4 meq/L
PL [5]: 129.4 mg/dL
RALB [5]: 2.5 g/dL
TBIL [5]: 0.064 mg/dL
TC [5]: 71.4 mg/dL
TG [5]: 25 mg/dL
TP [5]: 5.2 g/dL
gamma-GTP [5]: 1 IU/L
TERMINAL_BW [6]: 187.1 g
APTT [6]: 18.1 s
Bas [6]: 0%
Eos [6]: 0.2%
Fbg [6]: 246.6 mg/dL
Hb [6]: 13.4 g/dL
Ht [6]: 41.5%
Lym [6]: 62.8%
MCH [6]: 21 pg
MCHC [6]: 32.3%
MCV [6]: 65.1 fL
Mono [6]: 1.4%
Neu [6]: 34.4%
PT [6]: 18.9 s
Plat [6]: 102.2 x10_4/uL
RBC [6]: 637.8 x10_4/ul
Ret [6]: 9%
WBC [6]: 60.4 x10_2/uL
KIDNEY_L [6]: 0.9 g
KIDNEY_R [6]: 0.8 g
KIDNEY_TOTAL [6]: 1.7 g
LIVER [6]: 8.4 g
A/G [6]: 0.9
ALP [6]: 1303.2 IU/L
ALT [6]: 131 IU/L
AST [6]: 226.6 IU/L
BUN [6]: 12.2 mg/dL
CRE [6]: 0.2 mg/dL
Ca [6]: 10.3 mg/dL
Cl [6]: 107.8 meq/L
DBIL [6]: 0.02 mg/dL
GLC [6]: 159.4 mg/dL
IP [6]: 8.2 mg/dL
K [6]: 3.7 meq/L
LDH [6]: 316.4 IU/L
Na [6]: 142.8 meq/L
PL [6]: 125.6 mg/dL
RALB [6]: 2.3 g/dL
TBIL [6]: 0.072 mg/dL
TC [6]: 68.8 mg/dL
TG [6]: 17.8 mg/dL
TP [6]: 5 g/dL
gamma-GTP [6]: 1 IU/L
TERMINAL_BW [7]: 182.7 g
APTT [7]: 18.9 s
Bas [7]: 0%
Eos [7]: 0.8%
Fbg [7]: 289.2 mg/dL
Hb [7]: 13.2 g/dL
Ht [7]: 40.3%
Lym [7]: 68%
MCH [7]: 21.1 pg
MCHC [7]: 32.7%
MCV [7]: 64.6 fL
Mono [7]: 2.2%
Neu [7]: 28.2%
PT [7]: 17.4 s
Plat [7]: 108.7 x10_4/uL
RBC [7]: 624.8 x10_4/ul
Ret [7]: 9.7%
WBC [7]: 63.8 x10_2/uL
KIDNEY_L [7]: 0.8 g
KIDNEY_R [7]: 0.8 g
KIDNEY_TOTAL [7]: 1.6 g
LIVER [7]: 7.5 g
A/G [7]: 0.9
ALP [7]: 1707.4 IU/L
ALT [7]: 72.2 IU/L
AST [7]: 136.6 IU/L
BUN [7]: 9.4 mg/dL
CRE [7]: 0.2 mg/dL
Ca [7]: 10.3 mg/dL
Cl [7]: 108.8 meq/L
DBIL [7]: 0.016 mg/dL
GLC [7]: 159.6 mg/dL
IP [7]: 9.9 mg/dL
K [7]: 3.9 meq/L
LDH [7]: 111.4 IU/L
Na [7]: 143.2 meq/L
PL [7]: 142.2 mg/dL
RALB [7]: 2.5 g/dL
TBIL [7]: 0.07 mg/dL
TC [7]: 79.2 mg/dL
TG [7]: 22 mg/dL
TP [7]: 5.4 g/dL
gamma-GTP [7]: 1 IU/L
TERMINAL_BW [8]: 192.2 g
APTT [8]: 23.1 s
Bas [8]: 0.4%
Eos [8]: 1.2%
Fbg [8]: 165.4 mg/dL
Hb [8]: 13.8 g/dL
Ht [8]: 42.5%
Lym [8]: 63.2%
MCH [8]: 21 pg
MCHC [8]: 32.5%
MCV [8]: 64.6 fL
Mono [8]: 4.6%
Neu [8]: 28.4%
PT [8]: 33.2 s
Plat [8]: 109 x10_4/uL
RBC [8]: 658 x10_4/ul
Ret [8]: 8.6%
WBC [8]: 78.4 x10_2/uL
KIDNEY_L [8]: 0.9 g
KIDNEY_R [8]: 0.9 g
KIDNEY_TOTAL [8]: 1.8 g
LIVER [8]: 8.1 g
A/G [8]: 0.9
ALP [8]: 2378 IU/L
ALT [8]: 313.8 IU/L
AST [8]: 571.6 IU/L
BUN [8]: 12.6 mg/dL
CRE [8]: 0.2 mg/dL
Ca [8]: 10.3 mg/dL
Cl [8]: 106.2 meq/L
DBIL [8]: 0.2 mg/dL
GLC [8]: 147.6 mg/dL
IP [8]: 9.3 mg/dL
K [8]: 4.2 meq/L
LDH [8]: 727.6 IU/L
Na [8]: 143.2 meq/L
PL [8]: 99.6 mg/dL
RALB [8]: 2.3 g/dL
TBIL [8]: 0.3 mg/dL
TC [8]: 51.6 mg/dL
TG [8]: 25.2 mg/dL
TP [8]: 4.9 g/dL
gamma-GTP [8]: 1.2 IU/L
